Literature values, collected in PMC6207715, “Determination of extended substrate specificity of the MALT1 as a strategy for the design of potent substrates and activity-based probes” (Scientific Reports, 2018).

Tests used:
Settings in all cases: cited from earlier work
caspase -9 = system: caspase -9
Excerpt: (§1) Z-VRPR-FMK, which was originally designed as a plant metacaspase inhibitor[3], is the most frequently used MALT1 inhibitor and binds covalently to the MALT1 active site. Mepazine is another inhibitor of MALT1, but functions in a noncovalent and reversible manner, limiting its usefulness in studying the enzyme. […] Hachmann et al. described the first tetrapeptidic MALT1-activity-based probe, which was characterized by medium potency (kobs/I = 9, 300 M^−1s^−1)[2 ...

caspase -8 = system: caspase -8
Excerpt: as §1

MALT1 = molecular target: T1, MALT1 (Homo sapiens, UniProt Q9UDY8)
T1 sequence (Q9UDY8 1-824): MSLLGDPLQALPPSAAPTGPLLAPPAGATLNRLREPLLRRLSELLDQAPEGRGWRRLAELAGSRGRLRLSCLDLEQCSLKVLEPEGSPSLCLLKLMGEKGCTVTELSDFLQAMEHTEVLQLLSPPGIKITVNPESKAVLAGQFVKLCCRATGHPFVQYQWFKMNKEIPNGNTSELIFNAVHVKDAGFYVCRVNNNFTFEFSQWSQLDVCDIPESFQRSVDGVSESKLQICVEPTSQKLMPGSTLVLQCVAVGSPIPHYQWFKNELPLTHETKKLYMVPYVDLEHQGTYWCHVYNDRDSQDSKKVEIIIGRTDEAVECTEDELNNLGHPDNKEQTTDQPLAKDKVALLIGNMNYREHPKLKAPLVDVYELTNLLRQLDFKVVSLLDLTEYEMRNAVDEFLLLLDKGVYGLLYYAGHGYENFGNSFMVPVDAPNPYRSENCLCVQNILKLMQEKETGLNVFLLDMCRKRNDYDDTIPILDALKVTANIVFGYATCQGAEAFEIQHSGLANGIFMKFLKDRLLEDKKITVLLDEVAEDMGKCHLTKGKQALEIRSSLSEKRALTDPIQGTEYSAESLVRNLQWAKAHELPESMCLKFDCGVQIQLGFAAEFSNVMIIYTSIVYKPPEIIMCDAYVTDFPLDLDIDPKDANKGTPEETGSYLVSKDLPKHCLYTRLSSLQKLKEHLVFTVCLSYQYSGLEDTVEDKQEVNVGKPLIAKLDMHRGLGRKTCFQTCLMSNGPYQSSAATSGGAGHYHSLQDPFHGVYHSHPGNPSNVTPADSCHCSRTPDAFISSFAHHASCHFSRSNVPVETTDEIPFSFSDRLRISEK
Excerpt: as §1

caspase -3 = system: caspase -3
Excerpt: as §1

## COCCOc1nc(-c2ccc(Cl)c(Cl)c2)n(-c2ccc(NC(=O)CCl)cc2)n1 [MI-2]
Caspase -9
  activity toward caspase -9: exhibits activity
Caspase -8
  activity toward caspase -8: exhibits activity
MALT1
  IC50: 5.84 µM
Caspase -3
  activity toward caspase -3: exhibits activity
